# Test results reported in US9193731B2, “Antimicrobial compounds and methods of making and using the same” (Melinta Therapeutics, Inc., priority 2009, dated 2015).
# Test system: Escherichia coli strain ATCC25922
# Assay: standard microdilution assay to determine minimum inhibitory concentrations (MICs)
# Format: cell-based
# Conditions: Escherichia coli strain ATCC25922, microdilution
# Method in brief: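 E. coli strain ATCC25922 tested per CLSI microdilution methodology (about 100 microliters per well) to find minimum inhibitory concentrations. Activity scored categorically at a 16 micrograms/ml threshold.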
row,SMILES,E. coli ATCC25922 MIC
1,N=C(N)NCCCNCc1ccc(-n2cc3cc(-c4ccc(S(=O)(=O)NC5CCCNC5)cc4)[nH]c3nc2=O)cc1 (centres unmarked) [Compound 805],+ (a “+” indicates that the compound has an MIC value of 16 micrograms/ml or less)
2,NCCCNCc1ccc(-n2cc3cc(-c4ccc(S(=O)(=O)NC5CCCNC5)cc4)[nH]c3nc2=O)cc1 (centres unmarked) [Compound 807],+ (a “+” indicates that the compound has an MIC value of 16 micrograms/ml or less)
3,N=C(N)NCCCNCc1ccc(-n2cc3cc(-c4cc(C(=O)N5CCS(=O)(=O)CC5)cc(N5CCNCC5)c4)[nH]c3nc2=O)cc1 [Compound 875],+ (a “+” indicates that the compound has an MIC value of 16 micrograms/ml or less)
4,N=C(N)NCCCNCc1ccc(-n2cc3cc(C4CCN(CC5CNC(=O)O5)C4)[nH]c3nc2=O)cc1 (centres unmarked) [Compound 1457],− (a “−” indicates that the compound has an MIC value greater than 16 micrograms/ml)
5,COc1ccc(NCCCS(=O)(=O)c2ccc(-c3cc4cn(-c5ccc(C(=O)NCCCNC(=N)N)cc5)c(=O)nc4[nH]3)cc2)cc1 [Compound 1260],− (a “−” indicates that the compound has an MIC value greater than 16 micrograms/ml)
6,N=C(N)NCCCNCc1ccc(-n2cc3cc(-c4cc(CNCCN)cc(OC(F)(F)F)c4)[nH]c3nc2=O)cc1 [Compound 2070a],+ (a “+” indicates that the compound has an MIC value of 16 micrograms/ml or less)
7,N=C(N)NCCCNCc1ccc(-n2cc3cc(-c4ccc(S(=O)(=O)N(Cc5csc(-c6ccc(C(F)(F)F)cc6)n5)C5CCNCC5)cc4)[nH]c3nc2=O)cc1 [Compound 786],+ (a “+” indicates that the compound has an MIC value of 16 micrograms/ml or less)
8,N=C(N)NCCCNC(=O)c1ccc(-n2cc3cc(-c4ccc(S(=O)(=O)NC5CCNC5)cc4)[nH]c3nc2=O)cc1 (centres unmarked) [Compound 1310],+ (a “+” indicates that the compound has an MIC value of 16 micrograms/ml or less)
9,Cc1cc(-n2cc3cc(-c4ccc(S(=O)(=O)NC5CCCNC5)cc4)[nH]c3nc2=O)ccc1CNCCCNC(=N)N (centres unmarked) [Compound 1309],+ (a “+” indicates that the compound has an MIC value of 16 micrograms/ml or less)
10,N=C(N)NCCCNCc1ccc(-n2cc3cc(C4CCCN(CCOCCO)C4)[nH]c3nc2=O)cc1 (centres unmarked) [Compound 2043a],+ (a “+” indicates that the compound has an MIC value of 16 micrograms/ml or less)
11,CS(=O)(=O)NCCc1cc(OCC(F)CN)cc(-c2cc3cn(-c4ccc(CNCCCNC(=N)N)cc4)c(=O)nc3[nH]2)c1 (centres unmarked) [Compound 2031a],− (a “−” indicates that the compound has an MIC value greater than 16 micrograms/ml)
12,CCOC(CN)COc1cccc(-c2cc3cn(-c4ccc(CNCCCNC(=N)N)cc4)c(=O)nc3[nH]2)c1 (centres unmarked) [Compound 1458],+ (a “+” indicates that the compound has an MIC value of 16 micrograms/ml or less)
13,CS(=O)(=O)c1ccc(-c2cc(OCC(F)CN)cc(-c3cc4cn(-c5ccc(CNCCCNC(=N)N)cc5)c(=O)nc4[nH]3)c2)cc1 (centres unmarked) [Compound 2002a],− (a “−” indicates that the compound has an MIC value greater than 16 micrograms/ml)
14,CCOC(=O)C1(CN(C2CCNCC2)S(=O)(=O)c2ccc(-c3cc4cn(-c5ccc(CNCCCNC(=N)N)cc5)c(=O)nc4[nH]3)cc2)CC1 [Compound 878],+ (a “+” indicates that the compound has an MIC value of 16 micrograms/ml or less)
15,Cc1cc(-n2cc3cc(-c4cccc(OCCCN)c4)[nH]c3nc2=O)ccc1CNCCCNC(=N)N [Compound 1280],+ (a “+” indicates that the compound has an MIC value of 16 micrograms/ml or less)
16,N=C(N)NCCCNC(=O)c1ccc(-n2cc3cc(-c4cccc(CCCCN)c4)[nH]c3nc2=O)cc1 [Compound 1433],+ (a “+” indicates that the compound has an MIC value of 16 micrograms/ml or less)
17,N=C(N)NCCCNCc1ccc(-n2cc3cc(-c4ccc(S(=O)(=O)N(CCCC5CCCCN5)C5CCNCC5)cc4)[nH]c3nc2=O)cc1 (centres unmarked) [Compound 1019],+ (a “+” indicates that the compound has an MIC value of 16 micrograms/ml or less)
18,N#CCCCN(C1CCNCC1)S(=O)(=O)c1ccc(-c2cc3cn(-c4ccc(CNCCCNC(=N)N)cc4)c(=O)nc3[nH]2)cc1 [Compound 842],+ (a “+” indicates that the compound has an MIC value of 16 micrograms/ml or less)
19,N=C(N)NCCCNCCCCCn1cc2cc(-c3ccc(S(=O)(=O)NC4CCNCC4)cc3)[nH]c2nc1=O [Compound 924],+ (a “+” indicates that the compound has an MIC value of 16 micrograms/ml or less)
20,COc1cc(-n2cc3cc(-c4cccc(OCC(C)(C)CN)c4)[nH]c3nc2=O)ccc1CNCCCNC(=N)N [Compound 1328],+ (a “+” indicates that the compound has an MIC value of 16 micrograms/ml or less)
21,N=C(N)NCCCNCc1ccc(-n2cc3cc(-c4ccc(S(=O)(=O)N(CCCn5ccc(C(F)(F)F)n5)C5CCNCC5)cc4)[nH]c3nc2=O)cc1 [Compound 934],+ (a “+” indicates that the compound has an MIC value of 16 micrograms/ml or less)
22,CN(C)Cc1ccc(-n2cc3cc(-c4ccc(S(=O)(=O)N(CC5COc6ccccc6O5)C5CCNCC5)cc4)[nH]c3nc2=O)cc1 (centres unmarked) [Compound 999],− (a “−” indicates that the compound has an MIC value greater than 16 micrograms/ml)
23,N=C(N)NCCCNC(=O)c1ccc(-n2cc3cc(-c4ccc(S(=O)(=O)N(CCOc5ccc(F)cc5)C5CCNCC5)cc4)[nH]c3nc2=O)cc1 [Compound 1093],+ (a “+” indicates that the compound has an MIC value of 16 micrograms/ml or less)
24,CC(C)(CN)COc1cccc(-c2cc3cn(-c4ccc(CNCCCNC(=N)N)c(F)c4)c(=O)nc3[nH]2)c1 [Compound 1361],+ (a “+” indicates that the compound has an MIC value of 16 micrograms/ml or less)
25,N=C(N)NCCCNCc1ccc(-n2cc3cc(CCS(=O)(=O)N(CCCc4ccccc4)C4CCNCC4)[nH]c3nc2=O)cc1 [Compound 990],+ (a “+” indicates that the compound has an MIC value of 16 micrograms/ml or less)
26,N=C(N)NCCCNCc1ccc(-n2cc3cc(-c4ccc(C(NC5CCNCC5)C(F)(F)F)cc4)[nH]c3nc2=O)cc1 (centres unmarked) [Compound 944],+ (a “+” indicates that the compound has an MIC value of 16 micrograms/ml or less)

# Same assay, conditions: Escherichia coli, ATCC25922, Escherichia coli strain ATCC25922, microdilution; read-out: E. coli ATCC25922 MIC
row,SMILES,MIC
1,NCCCNCc1ccc(-n2cc3cc(-c4cccc(N5CCNCC5)c4)[nH]c3nc2=O)cc1 [Compound 775],< 16 µg/mL
2,"N=C(N)NCCCNCc1ccc(-c2cn3cc[nH]c3nc2=O)cc1 [Compound 564, N-{3-[4-(7-Oxo-1,7-dihydro-imidazo[1,2-a]pyrimidin-6-yl)-benzylamino]-propyl}-guanidine]",< 16 µg/mL
3,CN(C)CCOc1ccccc1-c1cc2cn(-c3ccc(CN)cc3)c(=O)nc2[nH]1 [Compound 1111],> 16 µg/mL
4,CN(C)Cc1cc2cn(-c3ccc(CNCCCN)cc3)c(=O)nc2[nH]1 [Compound 884],> 16 µg/mL
5,NCCCN(CCCN)Cc1ccc(-n2cc3cc(-c4ccc(C(=O)Nc5cccnc5)cc4)[nH]c3nc2=O)cc1 [Compound 195],> 16 µg/mL
6,NCCCCCN1CCC(n2cc3cc(-c4ccc(F)cc4)[nH]c3nc2=O)C1 (centres unmarked) [Compound 560],> 16 µg/mL
7,NCc1ccc(-n2cc3cc(-c4ccc(S(=O)(=O)N(CCCN5CCc6ccccc65)C5CCNCC5)cc4)[nH]c3nc2=O)cc1 [Compound 1067],> 16 µg/mL
8,N=C(N)NCCCNCc1ccc(-n2cc3cc(CCN4CCS(=O)(=O)CC4)[nH]c3nc2=O)cc1 [Compound 785],> 16 µg/mL
9,NCCCNCc1ccc(-c2cn3cc(-c4ccc(F)cc4)[nH]c3nc2=O)cc1 [Compound 506],> 16 µg/mL
10,NCc1ccc(-n2cc3cc(-c4cccc(S(=O)(=O)N(CCn5cccc5)C5CCNCC5)c4)[nH]c3nc2=O)cc1 [Compound 1187],> 16 µg/mL
11,CCCCn1cc(CCN)c2ccc(-n3cc4cc(CCS(=O)(=O)C5CCNCC5)[nH]c4nc3=O)cc21 [Compound 1258],> 16 µg/mL
12,N=C(N)NCCCNCc1ccc(-n2cc3cc(C4CCNC4)[nH]c3nc2=O)cc1 (centres unmarked) [Compound 1229],< 16 µg/mL
13,N=C(N)NCCCCCn1cc2cc(-c3ccc(S(=O)(=O)NC4CCNCC4)cc3)oc2nc1=O [Compound 912],> 16 µg/mL
14,NCCCNCc1ccc(-n2cc3cc(CN4CCOC4=O)[nH]c3nc2=O)cc1 [Compound 289],> 16 µg/mL
15,N=C(N)NCCCNCc1ccc(-c2cn3cc(-c4ccc(C(=O)N5CC6CC5CN6)cc4)[nH]c3nc2=O)cc1 (centres unmarked) [Compound 745],< 16 µg/mL
16,NCc1ccc(-n2cc3cc(-c4cccc(S(=O)(=O)N(CCCc5cn[nH]c5)C5CCNCC5)c4)[nH]c3nc2=O)cc1 [Compound 1225],> 16 µg/mL
17,N=C(N)NCCCNCc1ccc(-n2cc3cc(-c4cc(C(=O)Nc5ccc(F)cc5)cc(N5CCNCC5)c4)[nH]c3nc2=O)cc1 [Compound 761],< 16 µg/mL
18,NCC(O)Cn1cc2cc(-c3ccc(S(=O)(=O)NC4CCNCC4)cc3)[nH]c2nc1=O (centres unmarked) [Compound 1149],> 16 µg/mL
19,NCCCN(CCCN)Cc1ccc(-n2cc3cc(-c4ccc(S(=O)(=O)N5CCN6CCC5CC6)c(F)c4)[nH]c3nc2=O)cc1 [Compound 231],< 16 µg/mL
20,NCCCNCc1ccc(-n2cc3cc(-c4cc(C(=O)Nc5ccc(F)cc5)cc(N5CCNCC5)c4)[nH]c3nc2=O)cc1 [Compound 760],< 16 µg/mL
21,NCCCN(CCCN)Cc1ccc(-n2cc3cc(-c4ccc(S(=O)(=O)N(CC(=O)O)C5CCNCC5)cc4)[nH]c3nc2=O)cc1 [Compound 230],> 16 µg/mL
22,NCCCOc1ccccc1-c1cc2cn(-c3ccc(CN)cc3)c(=O)nc2[nH]1 [Compound 1106],> 16 µg/mL
23,N=C(N)NCCCNCc1ccc(-c2cn3cc(-c4ccc(S(=O)(=O)N5CCNCC5)cc4)[nH]c3nc2=O)cc1 [Compound 788],< 16 µg/mL
24,O=c1nc2[nH]c3ccccc3c2cn1C1CCNC1 (centres unmarked) [Compound 597],> 16 µg/mL
25,N=C(N)NCCCNCc1ccc(-c2cn3cc(-c4ccc(C(=O)NC5CCNC5)cc4)[nH]c3nc2=O)cc1 (centres unmarked) [Compound 705],< 16 µg/mL
26,NCCCNCc1ccc(-n2cc3cc(-c4ccccc4C(F)(F)F)[nH]c3nc2=O)cc1 [Compound 292],> 16 µg/mL
27,NCc1ccc(-n2cc3cc(-c4cccc(CN5CCNCC5)c4)[nH]c3nc2=O)cc1 [Compound 1232],> 16 µg/mL
